The source of these data is ChEMBL document CHEMBL3046454, “Structureactivity relationship study of thiosemicarbazones on an African trypanosome: Trypanosoma brucei brucei” (Med Chem Res, 2013).

SMILES strings stand for the structures.

System in the first data set: not listed separately
The data set can be described thus: Toxicity against Artemia salina (brine shrimp) larvae assessed as mortality after 24 hr. It counts as organism-based. The conditions noted are these: in vivo.
As to `C/C(=N/NC(=S)Nc1ccccc1)c1ccc(Br)cc1`, the LC50 (as a rule, the concentration lethal to half of the exposed cells or organisms) at 24 h is 134 µM.

As for `C/C(=N/NC(N)=S)c1ccc2ccccc2c1` [ACETONAPHTHONE-THIOSEMICARBAZONE], the LC50 at 24 h was found to be 481 µM.

For the compound `C/C(=N/N=C(\N)S)C12CC3CC(CC(C3)C1)C2`, the LC50 at 24 h is 119 µM.

Take `C/C(=N/NC(=S)Nc1ccccc1)c1ccc(Cl)cc1`: the median lethal concentration (LC50) at 24 h was determined as 438 µM.

In a further data set the test system is Trypanosoma brucei brucei. As to the kind of experiment: Trypanocidal activity against Trypanosoma brucei brucei 427 bloodstream form assessed as inhibition of parasite proliferation after 72 hr by Lilit Alamar Blue method. Type of data set: functional, organism-based.
Settings: not given; call rule not given here
Background: Alamar Blue is a resazurin reagent that responds to reducing activity.
Turning to `COc1cc(/C(C)=N\NC(N)=S)cc(OC)c1OC`, the IC50 (as a rule, the concentration at which inhibition is half-maximal) is given as “Not Active”.

`COc1ccc(/C(C)=N\NC(N)=S)cc1OC`: the half-inhibitory concentration (IC50) entry is listed as “Not Active”.

Turning to `C/C(=N/NC(=S)Nc1ccccc1)c1ccc2ccccc2c1`, the IC50 result is given as “ND(Insoluble)”.

Still in this data set, the particulars now being: Trypanosoma brucei, 427, 72 h; read-out: IC50.
As for `NC(=S)N/N=C\c1cccc(Br)c1`, the IC50 worked out at 136 µM.

Take `C/C(=N/NC(=S)Nc1ccccc1)c1ccc(Br)cc1`: the IC50 stood at 5.19 µM.

With `NC(=S)N/N=C\c1cc(Cl)ccc1O`, the IC50 is 45.6 µM.

Consider `CC/C(=N/NC(N)=S)c1ccc(OC)cc1`, for which the IC50 worked out at 132 µM.

For `NC(=S)NN=C(c1ccccc1)c1ccccc1` [BENZOPHENONE-THIOSEMICARBAZONE], the concentration for half-maximal inhibition (IC50) came to 68.3 µM.

Take `CN(C)c1ccc(/C=C/C=N\NC(N)=S)cc1`: the IC50 came out at 17.7 µM.

Turning to `NC(=S)N/N=C\C=C\c1ccccc1`, the IC50 is 76.3 µM.

`NC(=S)N/N=C\c1ccccc1Cl`: the IC50 amounted to 220 µM.

As for `C/C(=N/NC(N)=S)c1ccc2ccccc2c1` [ACETONAPHTHONE-THIOSEMICARBAZONE], the IC50 amounted to 9.62 µM.

`C/C(=N/NC(N)=S)c1ccccc1Cl`: the IC50 was determined as 199 µM.

On to `C/C(=N/N=C(\N)S)C12CC3CC(CC(C3)C1)C2`, for which the half-inhibitory concentration (IC50) turned out to be 8.38 µM.

As to `NC(=S)N/N=C\c1cccc(Cl)c1`, the IC50 was found to be 164 µM.

As for `NC(=S)N/N=C\c1ccccc1` [BENZALDEHYDE-THIOSEMICARBAZONE], the IC50 came out at 444 µM.

As to `C/C(=N/N=C(\N)S)c1ccc(Cl)cc1` [P-CHLOROPHENYL(METHYL)THIOSEMICARBAZONE], the IC50 worked out at 11.1 µM.

Take `Cc1ccc(/C=N\NC(N)=S)cc1`: the half-inhibitory concentration (IC50) is 124 µM.

Consider `NC(S)=NN=C(Cc1ccccc1)Cc1ccccc1`, for which the IC50 stood at 147 µM.

In the case of `Cc1ccccc1/C=N\NC(N)=S`, the IC50 stood at 222 µM.

On to `C/C(=N/NC(N)=S)c1ccc(Br)cc1`, for which the IC50 is 26.9 µM.

For the compound `NC(=S)N/N=C\CCc1ccccc1`, the IC50 is 260 µM.

In the case of `NC(=S)N/N=C\c1ccc(Cl)cc1`, the IC50 was 82.6 µM.

For the compound `C/C(=N/NC(N)=S)c1cccc(Br)c1`, the IC50 turned out to be 70.4 µM.

For `C/C(=N/NC(=S)Nc1ccccc1)c1ccc(Cl)cc1`, the 50% inhibitory concentration (IC50) was found to be 3.97 µM.

For `COc1ccc(/C=N\NC(N)=S)cc1`, the IC50 worked out at 259 µM.

As to `C=C(C)C1CC=C(C)/C(=N/NC(N)=S)C1` (stereo not drawn) [CARVONE-THIOSEMICARBAZONE], the IC50 turned out to be 39.7 µM.

For the compound `COc1ccc(/C(C)=N\NC(N)=S)cc1`, the IC50 is 91.1 µM.

For `NC(=S)N/N=C\c1ccccc1O`, the IC50 worked out at 170 µM.

Turning to `C/C(=N/NC(N)=S)c1ccccc1` [ACETOPHENONE-THIOSEMICARBAZONE], the IC50 is 212 µM.

System in the next data set: not listed separately
The data set can be described thus: Selectivity index, ratio of LC50 for Artemia salina larvae to IC50 for Trypanosoma brucei brucei 427 bloodstream form.
Settings: not given
For `C/C(=N/NC(=S)Nc1ccccc1)c1ccc(Br)cc1`, the Ratio LC50/IC50 amounted to 25.9.

`C/C(=N/NC(N)=S)c1ccc2ccccc2c1` [ACETONAPHTHONE-THIOSEMICARBAZONE]: the Ratio LC50/IC50 was determined as 50.

Consider `C/C(=N/N=C(\N)S)C12CC3CC(CC(C3)C1)C2`, for which the Ratio LC50/IC50 is 14.2.

As to `C/C(=N/NC(=S)Nc1ccccc1)c1ccc(Cl)cc1`, the Ratio LC50/IC50 was 110.
